Results from patent US11505527B1, “Tetrahydroquinoline derivatives and a process of preparation thereof” (King Abdulaziz University, priority 2022, dated 2022).
Read-outs that look alike come from different tables or passages of the source. Each block holds one compound with its values, some of them ahead of it.

Experiments:
HER-2 = HER-2 (Homo sapiens (Human), UniProt P04626); test: In vitro kinase inhibition assay, HER2 (ADP-Glo Kinase Assay); type: biochemical
From the text: (§1) RTK's play essential roles in regulation of cell proliferation, differentiation, survival and apoptosis. Aberrant expression of RTK results in cell growth dysfunction leading to tumor takeover, angiogenesis, and metastasis. They also produce their actions in a synergistic pattern in regulating tumor response to different anticancer RTK inhibitor drug therapies. […] The procedure of the used kits was done according to the manufacturer's instructions.

PDGFR-β = PDGFR-β (Homo sapiens (Human), UniProt P09619); test: In vitro kinase inhibition assay, PDGFR-β; type: biochemical
PDGFR-β, sequence (P09619 33-1106, species assumed): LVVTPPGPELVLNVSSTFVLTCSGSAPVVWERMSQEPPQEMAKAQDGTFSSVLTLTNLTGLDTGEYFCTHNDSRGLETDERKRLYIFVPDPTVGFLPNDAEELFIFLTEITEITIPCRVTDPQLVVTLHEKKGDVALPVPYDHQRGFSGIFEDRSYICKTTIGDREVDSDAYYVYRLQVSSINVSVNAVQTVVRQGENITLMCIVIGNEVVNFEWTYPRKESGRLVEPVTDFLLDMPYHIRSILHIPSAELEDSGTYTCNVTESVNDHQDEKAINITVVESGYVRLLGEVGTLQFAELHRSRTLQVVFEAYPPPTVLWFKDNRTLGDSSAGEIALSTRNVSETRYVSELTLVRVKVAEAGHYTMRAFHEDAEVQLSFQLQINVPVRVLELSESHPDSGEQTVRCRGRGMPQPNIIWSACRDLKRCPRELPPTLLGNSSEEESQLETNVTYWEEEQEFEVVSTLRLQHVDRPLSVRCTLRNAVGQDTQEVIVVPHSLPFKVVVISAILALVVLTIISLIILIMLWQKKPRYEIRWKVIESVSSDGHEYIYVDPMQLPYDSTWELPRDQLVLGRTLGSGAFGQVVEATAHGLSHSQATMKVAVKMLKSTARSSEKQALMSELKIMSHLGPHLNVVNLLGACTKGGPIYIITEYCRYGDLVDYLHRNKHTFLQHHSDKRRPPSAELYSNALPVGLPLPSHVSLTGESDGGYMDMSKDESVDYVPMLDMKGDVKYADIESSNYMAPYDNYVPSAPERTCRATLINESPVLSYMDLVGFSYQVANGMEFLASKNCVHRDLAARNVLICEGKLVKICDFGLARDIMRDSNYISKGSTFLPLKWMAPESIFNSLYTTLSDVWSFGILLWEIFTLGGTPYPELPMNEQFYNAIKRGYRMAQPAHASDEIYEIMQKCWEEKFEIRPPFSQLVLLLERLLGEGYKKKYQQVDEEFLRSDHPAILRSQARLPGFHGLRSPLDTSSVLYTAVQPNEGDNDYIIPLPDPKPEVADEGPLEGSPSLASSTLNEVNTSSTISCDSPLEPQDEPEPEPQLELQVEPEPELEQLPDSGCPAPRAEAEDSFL
From the text: as §1

VEGFR-2 = VEGFR-2 (Homo sapiens (Human), UniProt P35968); test: In vitro kinase inhibition assay, VEGFR2 (KDR) Kinase Assay Kit; type: biochemical; conditions: for VEGFR-2 inhibitory effect, fold less than Sorafenib: vs Sorafenib
VEGFR-2, sequence (P35968 20-1356): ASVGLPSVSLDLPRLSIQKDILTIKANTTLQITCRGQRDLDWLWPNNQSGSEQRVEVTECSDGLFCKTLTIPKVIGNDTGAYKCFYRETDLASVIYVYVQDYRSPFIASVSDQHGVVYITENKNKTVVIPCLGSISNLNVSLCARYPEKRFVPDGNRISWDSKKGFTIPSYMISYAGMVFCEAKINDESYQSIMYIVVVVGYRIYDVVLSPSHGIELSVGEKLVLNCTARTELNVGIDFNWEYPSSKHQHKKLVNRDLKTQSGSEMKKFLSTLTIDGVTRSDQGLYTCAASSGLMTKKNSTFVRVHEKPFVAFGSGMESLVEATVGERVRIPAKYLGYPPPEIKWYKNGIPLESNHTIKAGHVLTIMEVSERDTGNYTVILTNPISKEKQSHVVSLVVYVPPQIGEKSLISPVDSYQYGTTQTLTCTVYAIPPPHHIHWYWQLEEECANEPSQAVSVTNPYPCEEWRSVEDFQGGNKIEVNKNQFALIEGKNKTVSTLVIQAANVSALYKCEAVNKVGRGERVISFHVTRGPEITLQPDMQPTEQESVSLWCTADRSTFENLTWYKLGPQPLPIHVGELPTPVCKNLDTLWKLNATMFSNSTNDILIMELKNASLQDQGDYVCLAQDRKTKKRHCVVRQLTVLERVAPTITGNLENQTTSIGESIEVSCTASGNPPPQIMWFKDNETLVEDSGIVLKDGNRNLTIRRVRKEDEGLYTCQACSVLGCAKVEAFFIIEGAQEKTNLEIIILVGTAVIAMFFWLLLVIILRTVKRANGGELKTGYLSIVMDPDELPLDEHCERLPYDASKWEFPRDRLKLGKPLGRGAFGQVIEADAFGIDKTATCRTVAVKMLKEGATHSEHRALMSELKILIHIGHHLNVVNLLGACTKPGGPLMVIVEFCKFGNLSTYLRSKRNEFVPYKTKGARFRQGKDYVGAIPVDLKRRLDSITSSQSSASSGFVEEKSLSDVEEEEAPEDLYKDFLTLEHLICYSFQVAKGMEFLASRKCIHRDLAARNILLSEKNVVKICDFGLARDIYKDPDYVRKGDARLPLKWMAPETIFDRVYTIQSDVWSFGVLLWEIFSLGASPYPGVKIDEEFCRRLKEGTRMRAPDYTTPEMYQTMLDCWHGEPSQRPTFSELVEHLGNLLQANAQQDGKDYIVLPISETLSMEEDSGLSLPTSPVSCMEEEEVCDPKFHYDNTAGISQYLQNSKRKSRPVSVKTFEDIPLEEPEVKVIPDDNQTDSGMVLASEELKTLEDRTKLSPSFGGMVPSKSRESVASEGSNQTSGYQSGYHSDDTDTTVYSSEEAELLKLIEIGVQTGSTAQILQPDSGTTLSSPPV
From the text: as §1

MCF-7 cancer cells = test: Annexin-V/PI apoptosis assay, flow cytometry; type: cell-based, human; conditions: MCF-7, compound at IC50 concentration, 24 h; control 0.66%
From the text: Flow cytometry method has been used to detect the corresponding red (PI) and green (FITC) fluorescence.
The induction of apoptosis is one of the most crucial tools that confirm the effectiveness of cancer therapy. Cell cycle checkpoints are G1 (restriction or start), S ([…]), and G2/M. One of the main functions of the anticancer therapeutics is stoppage of the cell division at these checkpoints. […] The cells were stained with Annexin V/PI and examined using flow cytometry procedure. For cell cycle analysis, cell pellets were fixed with 70% ethanol on ice for 15 min. and collected again. The collected pellets were incubated with propidium iodide (PI) staining solution ([…] PI, 0.1 mg/mL RNaseA, 0.05% Triton X-100) at room temperature for 1 hand analyzed by Gallios flow cytometer (Beckman Coulter, Brea, CA, USA). Apoptosis detection was performed by FITC Annexin V/PI commercial kit (Becton Dickenson, Franklin Lakes, N.J., USA) following the manufacture protocol. The samples were analyzed by fluorescence-activated cell sorting (FACS) with a Gallios flow cytometer (Beckman Coulter, Brea, Calif., USA) within 1 h after staining Data were analyzed using Kaluzav 1.2 (Beckman Coulter).

[1] = system: human breast cancer MCF-7 cell line; test: MTT cell viability assay against MCF-7 cells; type: cell-based; conditions: vs standard drug staurosporine
Method: (§2) For this purpose, cells suspended in the medium (2×10^4 cells/mL) were plated in 96-well culture plates and incubated at 37° C. in a 5% CO2 incubator. After 12 h, the test sample ([…]) was added to the cells (2×10^4) in 96-well plates and cultured at 37° C. for 3 days. The cultured cells were mixed with 20 μL (microlitre) of MTT solution and incubated for 4 h at 37° C. The supernatant was carefully removed from each well and […] of DMSO were added to each well to dissolve the formazan crystals which were formed by the cellular reduction of MTT. After mixing with a mechanical plate mixer, the absorbance of each well was measured by a microplate reader using a test wavelength of 570 nm (nanometers). […] Each experiment was performed at least 3 times.

normal WI38 cells = test: MTT assay against normal WI38 cells (safety profile); type: cell-based; conditions: for IC50 against WI38 cells, fold higher than IC50 against MCF-7 cancer cells: WI38 vs MCF-7; for IC50 against WI38 cells relative to IC50 of staurosporine: vs reference drug staurosporine
Method: as §2
One of the features that differentiates various antiproliferative therapeutic agents from each other is the recurrence and severity of their side effects to the normal cells at their therapeutic doses. Accordingly, the safety profile of the most promising candidates (4b, 4j, 4k, and 4e) was evaluated against the normal WI38 cells derived from lung tissues using MTT assay.

EGFR = EGFR (Homo sapiens (Human), UniProt P00533); test: In vitro kinase inhibition assay, EGFR (Abcam Human In cell ELISA Kit); type: biochemical
EGFR, sequence (P00533 25-1210): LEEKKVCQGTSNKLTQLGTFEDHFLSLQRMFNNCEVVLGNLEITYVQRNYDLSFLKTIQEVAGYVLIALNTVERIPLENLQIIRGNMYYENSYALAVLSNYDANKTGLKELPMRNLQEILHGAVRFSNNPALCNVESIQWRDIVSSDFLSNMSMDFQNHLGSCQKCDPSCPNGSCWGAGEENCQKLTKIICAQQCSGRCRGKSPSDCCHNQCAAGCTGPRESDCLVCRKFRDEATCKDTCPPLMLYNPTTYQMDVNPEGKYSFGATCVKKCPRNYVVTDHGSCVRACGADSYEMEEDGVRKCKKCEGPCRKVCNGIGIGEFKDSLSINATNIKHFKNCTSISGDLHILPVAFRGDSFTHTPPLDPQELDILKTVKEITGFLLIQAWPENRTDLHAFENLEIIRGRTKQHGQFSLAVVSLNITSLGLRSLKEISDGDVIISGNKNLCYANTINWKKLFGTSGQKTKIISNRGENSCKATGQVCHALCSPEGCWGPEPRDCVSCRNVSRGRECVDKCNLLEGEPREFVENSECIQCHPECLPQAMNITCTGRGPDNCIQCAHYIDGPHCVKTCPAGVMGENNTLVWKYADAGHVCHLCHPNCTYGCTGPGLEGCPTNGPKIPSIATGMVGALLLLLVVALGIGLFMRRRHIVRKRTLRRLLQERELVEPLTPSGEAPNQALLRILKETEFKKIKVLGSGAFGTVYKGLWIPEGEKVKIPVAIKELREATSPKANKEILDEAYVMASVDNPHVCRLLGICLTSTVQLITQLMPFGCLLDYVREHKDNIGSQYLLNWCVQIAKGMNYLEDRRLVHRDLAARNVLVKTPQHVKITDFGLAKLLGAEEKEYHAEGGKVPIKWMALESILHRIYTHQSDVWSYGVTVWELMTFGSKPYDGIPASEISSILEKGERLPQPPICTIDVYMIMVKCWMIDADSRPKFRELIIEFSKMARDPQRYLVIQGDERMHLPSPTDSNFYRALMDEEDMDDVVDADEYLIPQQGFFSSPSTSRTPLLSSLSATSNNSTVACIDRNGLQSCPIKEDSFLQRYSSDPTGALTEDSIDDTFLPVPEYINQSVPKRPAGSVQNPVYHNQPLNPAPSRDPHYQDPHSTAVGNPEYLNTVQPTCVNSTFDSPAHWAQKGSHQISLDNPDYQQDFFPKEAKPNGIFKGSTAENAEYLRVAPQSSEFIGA
From the text: as §1

[2] = unit mM, read-out: EGFR IC50 (converted)

HER-2, sequence (P04626 23-1255): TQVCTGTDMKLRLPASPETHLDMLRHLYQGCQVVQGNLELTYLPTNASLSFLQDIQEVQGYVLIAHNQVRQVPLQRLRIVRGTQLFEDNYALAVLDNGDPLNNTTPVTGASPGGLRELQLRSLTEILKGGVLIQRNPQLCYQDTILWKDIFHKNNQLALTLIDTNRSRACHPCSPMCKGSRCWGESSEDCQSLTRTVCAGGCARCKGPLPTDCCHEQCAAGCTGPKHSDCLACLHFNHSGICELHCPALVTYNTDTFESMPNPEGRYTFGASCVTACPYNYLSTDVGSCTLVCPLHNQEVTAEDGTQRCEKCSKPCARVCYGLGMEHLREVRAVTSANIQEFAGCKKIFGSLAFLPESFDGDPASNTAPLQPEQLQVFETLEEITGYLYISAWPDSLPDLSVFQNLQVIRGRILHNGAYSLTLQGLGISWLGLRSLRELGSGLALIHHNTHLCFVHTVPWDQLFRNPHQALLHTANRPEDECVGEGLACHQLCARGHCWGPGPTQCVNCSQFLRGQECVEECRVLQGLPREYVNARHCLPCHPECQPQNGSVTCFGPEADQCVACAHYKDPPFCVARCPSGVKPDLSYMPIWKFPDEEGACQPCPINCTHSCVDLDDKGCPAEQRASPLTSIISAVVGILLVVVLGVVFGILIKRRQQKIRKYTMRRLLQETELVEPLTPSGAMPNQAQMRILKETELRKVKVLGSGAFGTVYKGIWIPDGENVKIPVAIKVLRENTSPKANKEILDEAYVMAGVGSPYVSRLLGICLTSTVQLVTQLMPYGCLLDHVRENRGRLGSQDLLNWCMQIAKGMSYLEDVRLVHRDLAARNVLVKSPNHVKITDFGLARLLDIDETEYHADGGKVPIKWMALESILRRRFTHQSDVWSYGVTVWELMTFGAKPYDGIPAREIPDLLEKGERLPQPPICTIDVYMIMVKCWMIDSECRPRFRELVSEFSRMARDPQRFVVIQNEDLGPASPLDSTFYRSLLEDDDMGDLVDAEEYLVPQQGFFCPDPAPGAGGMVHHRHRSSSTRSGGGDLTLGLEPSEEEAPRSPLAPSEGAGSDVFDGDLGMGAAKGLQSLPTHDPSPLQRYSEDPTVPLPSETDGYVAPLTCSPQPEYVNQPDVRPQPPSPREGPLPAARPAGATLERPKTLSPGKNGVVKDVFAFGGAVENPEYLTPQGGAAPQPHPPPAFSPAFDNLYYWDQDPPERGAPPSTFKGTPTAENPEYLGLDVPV

IC50 (HER-2; Table 4, heading: HER-2 IC50, read-out: HER-2 IC50 (converted)): 170 ± 20 nM | IC50 (HER-2; differs from Table 4, read-out: HER-2 IC50 (converted)): 171 nM | IC50 (HER-2; unit mM, read-out: HER-2 IC50 as restated in text): 170 nM | PDGFR-β inhibition, fold more than reference sorafenib (PDGFR-β): 0.7 fold | IC50 (PDGFR-β; Table 4): 0.133 nM | IC50 (PDGFR-β; differs from Table 4): 81.6 nM | PDGFR-a inhibition, fold more than reference sorafenib (PDGFR-β; text b141 prints PDGFR-a): 1.9 fold | IC50 (VEGFR-2; Table 4): 0.57 nM | IC50 (VEGFR-2; differs from Table 4): 304 nM | VEGFR-2 inhibitory effect, fold less than Sorafenib (VEGFR-2): ~1.8 fold | IC50 (EGFR; EGFR IC50, Table 4, heading: EGFR IC50): 70 ± 20 nM | IC50 (EGFR; differs from Table 4, read-out: EGFR IC50 (converted)): 77.4 nM | IC50 (EGFR; [2]): 70 nM
Structure (SMILES): Cc1ccc(S(=O)(=O)c2ccc(C3C(C(=O)c4ccccc4)=C(N)NC4=C3C(=O)CC(C)(C)C4)cc2)cc1 (stereo not shown) [Compound 4j, 2-amino-3-benzoyl-7,7-dimethyl-4-(4-tosylphenyl)-4,6,7,8-tetrahydroquinolin-5(1H)-one]
necrosis percent (MCF-7 cancer cells): 4.2% | fold more potent activity than staurosporine (MCF-7) [1]: 1-1.6 fold | IC50 against WI38 cells, fold higher than IC50 against MCF-7 cancer cells (normal WI38 cells): 20 fold | IC50 against WI38 cells relative to IC50 of staurosporine (normal WI38 cells): about 3 fold

Structure (SMILES): Cc1ccc(S(=O)(=O)c2ccc(C3C(C(=O)c4ccc(Br)cc4)=C(N)NC4=C3C(=O)CC(C)(C)C4)cc2)cc1 (stereo not shown) [Compound 4l, 2-amino-3-(4-bromobenzoyl)-7,7-dimethyl-4-(4-tosylphenyl)-4,6,7,8-tetrahydroquinolin-5(1H)-one]
fold less potent than the standard drug staurosporine (MCF-7) [1]: 1.4 fold

Structure (SMILES): CN[C@@H]1C[C@H]2O[C@@](C)([C@@H]1OC)n1c3ccccc3c3c4c(c5c6ccccc6n2c5c31)C(=O)NC4 [Staurosporine, reference compound]
IC50 (normal WI38 cells; MTT, normal lung-derived cells): 13 ± 2 nM

Structure (SMILES): CC1(C)CC(=O)C2=C(C1)NC(N)=C(C(=O)c1ccccc1)C2c1ccc(S(=O)(=O)c2ccccc2)cc1 (stereo not shown) [Compound 4d, 2-amino-3-benzoyl-7,7-dimethyl-4-(4-(phenylsulfonyl)phenyl)-4,6,7,8-tetrahydroquinolin-5(1H)-one]
fold less potent than the standard drug staurosporine (MCF-7) [1]: 1.4 fold

Structure (SMILES): Cc1ccc(C(=O)C2=C(N)NC3=C(C(=O)CC(C)(C)C3)C2c2ccc(S(=O)(=O)c3ccccc3)cc2)cc1 (stereo not shown) [Compound 4e, 2-amino-7,7-dimethyl-3-(4-methylbenzoyl)-4-(4-(phenylsulfonyl)phenyl)-4,6,7,8-tetrahydroquinolin-5(1H)-one]
fold more potent activity than staurosporine (MCF-7) [1]: 1-1.6 fold | IC50 against WI38 cells, fold higher than IC50 against MCF-7 cancer cells (normal WI38 cells): 4 fold | IC50 against WI38 cells relative to IC50 of staurosporine (normal WI38 cells): approximately equal

IC50 (HER-2; Table 4, read-out: HER-2 IC50 (converted)): 0.562 nM | IC50 (PDGFR-β; Table 4): 0.394 nM | IC50 (VEGFR-2; Table 4): 1.97 nM | VEGFR-2 inhibitory effect, fold less than Sorafenib (VEGFR-2): about 6.2 fold | IC50 (EGFR; [2]): 110 nM
Structure (SMILES): CCOC(=O)C1=C(C(F)(F)F)NC2=C(C(=O)CC(C)(C)C2)C1c1ccc(S(=O)(=O)c2ccccc2)cc1 (stereo not shown) [Compound 4b, ethyl 7,7-dimethyl-5-oxo-4-(4-(phenylsulfonyl)phenyl)-2-(trifluoromethyl)-1,4,5,6,7,8-hexahydroquinoline-3-carboxylate]
fold more potent activity than staurosporine (MCF-7) [1]: about 2.5 fold | IC50 against WI38 cells, fold higher than IC50 against MCF-7 cancer cells (normal WI38 cells): 24 fold | IC50 against WI38 cells relative to IC50 of staurosporine (normal WI38 cells): about 3 fold

Structure (SMILES): Cc1ccc(C(=O)C2=C(N)NC3=C(C(=O)CC(C)(C)C3)C2c2ccc(S(=O)(=O)c3ccc(C)cc3)cc2)cc1 (stereo not shown) [Compound 4k, 2-amino-7,7-dimethyl-3-(4-methylbenzoyl)-4-(4-tosylphenyl)-4,6,7,8-tetrahydroquinolin-5(1H)-one]
fold more potent activity than staurosporine (MCF-7) [1]: 1-1.6 fold | IC50 against WI38 cells, fold higher than IC50 against MCF-7 cancer cells (normal WI38 cells): 4 fold | IC50 against WI38 cells relative to IC50 of staurosporine (normal WI38 cells): approximately equal
